Where “and” joins values, the source holds several entries; their conditions need not be identical. Equal values may be shown once. Marks after values point to notes of the source that are not given here.
Experiments:
[1] = molecular target: human A2A receptors (Homo sapiens (Human), UniProt P29274); assay: Binding assay at human A2A receptors (Example 2); conditions: HEK cells expressing human A2AAR; radioligand [3H]CGS21680; n = 3-5; read-out: Affinity (Ki, nM) A2A
[2] = molecular target: human A3AR (Homo sapiens (Human), UniProt P0DMS8); assay: [35S]GTPγS binding assay, membranes of CHO cells expressing human A3AR; assay type: biochemical; conditions: stimulation measured by [35S]GTPγS binding assay
Sequence of human A3AR (P0DMS8 whole entry): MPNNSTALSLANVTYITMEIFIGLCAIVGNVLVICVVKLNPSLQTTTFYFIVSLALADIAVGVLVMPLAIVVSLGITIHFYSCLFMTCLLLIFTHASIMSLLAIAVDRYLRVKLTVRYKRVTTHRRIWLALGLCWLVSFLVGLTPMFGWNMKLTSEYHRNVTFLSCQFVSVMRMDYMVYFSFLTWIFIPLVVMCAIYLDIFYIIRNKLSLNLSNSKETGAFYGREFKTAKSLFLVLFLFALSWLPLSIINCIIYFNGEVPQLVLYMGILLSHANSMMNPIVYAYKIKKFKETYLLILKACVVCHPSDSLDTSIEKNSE

[3] = molecular target: human A1 receptors (Homo sapiens (Human), UniProt P30542); assay: Binding assay at human A1 receptors (Example 2); conditions: CHO cells expressing human A1AR; radioligand [3H]CCPA or [3H]R-PIA; n = 3-5; read-out: Affinity (Ki, nM) A1
Sequence of human A1 receptors (P30542 whole entry): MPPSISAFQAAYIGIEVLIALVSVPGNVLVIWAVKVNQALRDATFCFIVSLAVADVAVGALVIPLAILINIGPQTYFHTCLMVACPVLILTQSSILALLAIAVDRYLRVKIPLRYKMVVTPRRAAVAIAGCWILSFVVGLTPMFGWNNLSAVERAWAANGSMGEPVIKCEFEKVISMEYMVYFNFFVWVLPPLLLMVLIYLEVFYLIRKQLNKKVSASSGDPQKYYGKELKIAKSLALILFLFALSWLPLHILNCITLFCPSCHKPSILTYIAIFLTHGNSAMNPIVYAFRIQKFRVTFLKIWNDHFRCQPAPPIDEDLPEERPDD

[4] = molecular target: T1, hA1AR (Homo sapiens (Human), UniProt P30542); assay: Radioligand membrane binding at hA1AR (Example 6); conditions: CHO cells expressing hA1AR; [3H]R-PIA; n = 3-5; read-out: Affinity Ki, nM A1
T1 sequence (P30542 whole entry): as above
Experimental: (§1) In addition, 800 μg/mL Geneticin and 500 μg/mL hygromycin were added to the A2A media and to the A1 and A3 media, respectively. […] The concentration of protein was determined using a BCA Protein Assay Kit from Pierce Biotechnology (Rockford, Ill.).
(§2) Radioligand binding assays at A1, A2A, and A3ARs were performed according to the procedures described previously.
(§3) All of the filters were washed 3 times with Tris-HCl, pH 7.5. […] Filters for A3AR binding were counted using a PerkinElmer Cobra II γ-counter.
(§4) Binding and functional parameters were calculated using Prism 5.0 software (GraphPAD, San Diego, Calif., USA). IC50 values obtained from competition curves were converted to Ki values using the Cheng-Prusoff equation. Data were expressed as mean±standard error.

[5] = molecular target: hA2AAR (Homo sapiens (Human), UniProt P29274); assay: Radioligand membrane binding at hA2AAR (Example 6); conditions: for Ki: HEK293 cells expressing hA2AAR, [3H]CGS21680, n = 3-5, read-out: Affinity Ki, nM A2A
Sequence of hA2AAR (P29274 whole entry): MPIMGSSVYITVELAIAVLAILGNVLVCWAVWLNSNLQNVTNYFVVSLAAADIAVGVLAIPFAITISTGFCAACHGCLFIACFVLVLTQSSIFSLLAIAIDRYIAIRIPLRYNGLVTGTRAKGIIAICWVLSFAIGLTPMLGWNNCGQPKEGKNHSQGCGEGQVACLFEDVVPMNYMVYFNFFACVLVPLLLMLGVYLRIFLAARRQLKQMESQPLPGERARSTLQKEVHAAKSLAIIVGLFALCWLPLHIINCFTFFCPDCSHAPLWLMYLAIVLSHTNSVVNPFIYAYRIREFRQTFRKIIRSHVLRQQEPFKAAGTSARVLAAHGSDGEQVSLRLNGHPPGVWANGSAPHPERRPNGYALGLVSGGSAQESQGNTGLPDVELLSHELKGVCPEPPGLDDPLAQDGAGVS
Experimental: as §1, §2, §3, §4

[6] = molecular target: hA3AR (Homo sapiens (Human), UniProt P0DMS8); assay: Radioligand membrane binding at hA3AR (Example 6); conditions: CHO cells expressing hA3AR; [125I]I-AB-MECA; n = 3-5; read-out: Affinity Ki, nM A3
Sequence of hA3AR (P0DMS8 whole entry): as the sequence (P0DMS8 whole entry) above

[7] = molecular target: T1, hA1AR; assay: A1AR functional assay, inhibition of forskolin-stimulated cyclic AMP production in AR-transfected CHO cells; assay type: cell-based; conditions: for inhibition at 10 µM: CHO, read-out: % Inhibition, cyclic AMP A1
[8] = test system: seizures induced by 6 Hz corneal stimulation in mice; assay: 6 Hz minimal clonic seizure test; assay type: in vivo; conditions: mice, i.p., measured at 1 h post injection
Experimental: (§5) For the MES and 6 Hz tests, a drop of anesthetic/electrolyte solution (0.5% tetracaine hydrochloride in 0.9% saline) was applied to the eyes of each animal prior to placement of the corneal electrodes. The electrical stimulus in the MES test was 50 mA, 60 Hz, for mice. Abolition of the hindleg tonic extensor component of the seizure was used as the endpoint.
The ability of the test substance to prevent seizures induced by 6 Hz corneal stimulation (32 mA, 3 sec duration) in mice was evaluated at a convulsive current that evokes a seizure in 97% of the population tested (CC97). Six Hz seizures are characterized by a minimal clonic phase that is followed by stereotyped, automatistic behaviors described originally as being similar to the aura of human patients with partial seizures. Toman, J. E. et al., Tex. Rep.
Animals not displaying this behavior were considered protected.

[9] = test system: MES seizures in mice; assay: Maximal electroshock (MES) seizure test; assay type: in vivo; conditions: i.p., 1 mg/kg
Experimental: The electrical tests used were the maximal electroshock (MES) seizure test, the 6 Hz minimal clonic seizure test, and the corneal kindled mouse test. The chemical test was the s.c. metrazol seizure tests. Time of peak effect (TPE) is deduced from data generated in initial qualitative test procedures. Five groups of 4 animals each are administered the test compound, and each group is tested at one of five different time intervals: ¼, ½, 1, 2 and 4 h. The time point at which the compound produces the most activity/toxicity was chosen as TPE.
as §5

[10] = test system: s.c. metrazol seizures in mice; assay: s.c. metrazol (scMET) seizure test; assay type: in vivo; conditions: i.p., 1 mg/kg
Source text: In vivo anticonvulsant activity was established by both electrical and chemoconvulsant seizure tests which have been described previously. White, H. S., et al., Ital. J. Neurol. […] White, H. S. et al., Antiepileptic Drugs ([…].; Meldrum, B. S. ed), 1995, pp 99-110, Raven Press, New York.; and Smith, M., et al., Neurotherapeutics 2007, 4, 12-17. The electrical tests used were the maximal electroshock (MES) seizure test, the 6 Hz minimal clonic seizure test, and the corneal kindled mouse test. The chemical test was the s.c. metrazol seizure tests. Time of peak effect (TPE) is deduced from data generated in initial qualitative test procedures. […] The time point at which the compound produces the most activity/toxicity was chosen as TPE.

[11] = test system: mice; assay: Minimal behavioral toxicity test, rotorod procedure; conditions: i.p., measured at 1 h post injection

Sequence of human A2A receptors (P29274 whole entry): as the sequence (P29274 whole entry) above

COc1ccc(OC)c(CNc2nc(Cl)nc3c2ncn3[C@H]2[C@H](O)[C@H](O)[C@@H]3C[C@@H]32)c1 [Compound 11b, (1′R,2′R,3′S,4′R,5′S)-4′-[2-Chloro-6-(2,5-dimethoxybenzylamino)purine]-2′,3′-O-dihydroxybicyclo-[3.1.0]hexane]
Ki [1]: 2620 ± 730 nM | % Efficacy A3 [2]: 4.6 ± 3.8%

O[C@@H]1[C@H](O)[C@@H]2C[C@@H]2[C@H]1n1cnc2c(NCc3cccc(Br)c3)nc(Cl)nc21 [Compound 9b, (1′R,2′R,3′S,4′R,5′S)-4′-[2-Chloro-6-(3-bromobenzylamino)purine]-2′,3′-O-dihydroxybicyclo-[3.1.0]hexane]
Ki [3]: 1760 ± 1010 nM

O[C@@H]1[C@H](O)[C@@H]2C[C@@H]2[C@H]1n1cnc2c(NCc3cccc(Cl)c3)nc(Cl)nc21 [Compound 8b, (1′R,2′R,3′S,4′R,5′S)-4′-[2-Chloro-6-(3-chlorobenzylamino)purine]-2′,3′-O-dihydroxybicyclo-[3.1.0]hexane]
Ki [3]: 3070 ± 1500 nM | Ki [1]: 4510 ± 910 nM | % Efficacy A3 [2]: 2.9 ± 3.7%

O[C@@H]1[C@H](O)[C@@H]2C[C@@H]2[C@H]1n1cnc2c(NC3CCCCC3)nc(Cl)nc21 [Compound 110, (1R,2R,3S,4R,5S)-4-(2-Chloro-6-(cyclohexylamino)-9H-purin-9-yl)bicyclo[3.1.0]hexane-2,3-diol]
Ki [4]: 140 ± 10 nM | Ki [5]: 2720 ± 450 nM | Ki [6]: 500 ± 120 nM | inhibition at 10 µM [7]: 38 ± 17.6%

O[C@@H]1[C@H](O)[C@@H]2C[C@@H]2[C@H]1n1cnc2c(N[C@@H]3C[C@H]3c3ccccc3)nc(Cl)nc21 (relative stereo) [Compound 13b, (1′R,2′R,3′S,4′R,5′S)-4′-[2-Chloro-6-(trans-2-phenylcyclopropylamino)purine]-2′,3′-O-dihydroxybicyclo-[3.1.0]hexane]
% Efficacy A3 [2]: 9.7 ± 4.1%

Nc1nc(Cl)nc2c1ncn2[C@H]1[C@H](O)[C@H](O)[C@@H]2C[C@@H]21 [Compound 107, (1R,2R,3S,4R,5S)-4-(6-Amino-2-chloro-9H-purin-9-yl)-bicyclo[3.1.0]hexane-2,3-diol]
Ki [4]: 350 ± 90 nM | Ki [5]: 3140 ± 450 nM | Ki [6]: 160 ± 42 nM | inhibition at 10 µM [7]: 68.1 ± 4.4%

O[C@@H]1[C@H](O)[C@@H]2C[C@@H]2[C@H]1n1cnc2c(NCC3CC3)nc(Cl)nc21 [Compound 119, (1R,2R,3S,4R,5S)-4-(2-Chloro-6-(cyclopropylmethylamino)-9H-purin-9-yl)bicyclo[3.1.0]hexane-2,3-diol]
Ki [4]: 68.4 ± 8.9 nM | Ki [5]: 4410 ± 1090 nM | Ki [6]: 8.9 ± 1.9 nM | inhibition at 10 µM [7]: 81 ± 21.1%

CCC(CC)Nc1nc(Cl)nc2c1ncn2[C@H]1[C@H](O)[C@H](O)[C@@H]2C[C@@H]21 [Compound 118, (1R,2R,3S,4R,5S)-4-(2-Chloro-6-(pentan-3-ylamino)-9H-purin-9-yl)bicyclo[3.1.0]hexane-2,3-diol]
Ki [4]: 78.8 ± 15.6 nM | Ki [5]: 3700 ± 300 nM | Ki [6]: 52 ± 14 nM | inhibition at 10 µM [7]: 28.6 ± 3.8%

COc1ccc(O)c(CNc2nc(Cl)nc3c2ncn3[C@H]2[C@H](O)[C@H](O)[C@@H]3C[C@@H]32)c1 [Compound 12b, (1′R,2′R,3′S,4′R,5′S)-4′-[2-Chloro-6-(2-hydroxy-5-methoxybenzylamino)purine]-2′,3′-O-dihydroxybicyclo-[3.1.0]hexane]
Ki [3]: 1110 ± 300 nM | Ki [1]: 6870 ± 1440 nM | % Efficacy A3 [2]: 0.4 ± 1.3%

(1R,2R,3S,4R,5S)-4-(2-Chloro-6-(exo-norbornyl)-9H-purin-9-yl)bicyclo[3.1.0]hexane-2,3-diol [Compound 114]
Ki [4]: 200 ± 30 nM | Ki [5]: 4080 ± 170 nM | Ki [6]: 236 ± 43 nM | % Inhibition, cyclic AMP A1 ([7]; maximal efficacy at 10 μM, in comparison to effect (100%) of full agonist CPA at 10 μM, n = 3-5): 27.8 ± 6.2%

O[C@@H]1[C@H](O)[C@@H]2C[C@@H]2[C@H]1n1cnc2c(N[C@H](CC3CC3)C3CC3)nc(Cl)nc21 [Compound 218, (1R,2R,3S,4R,5S)-4-(2-Chloro-6-((R)-1,2-dicyclopropylethylamino)-9H-purin-9-yl)bicyclo[3.1.0]hexane-2,3-diol]
Ki [4]: 490 ± 90 nM | Ki [5]: 4840 ± 400 nM | Ki [6]: 1760 ± 210 nM | inhibition at 10 µM [7]: 18.4 ± 2.1%

CC[C@H](Nc1nc(Cl)nc2c1ncn2[C@H]1[C@H](O)[C@H](O)[C@@H]2C[C@@H]21)C1CC1 [Compound 213, (1R,2R,3S,4R,5S)-4-(2-Chloro-6-((S)-1-cyclopropylpropylamino)-9H-purin-9-yl)bicyclo[3.1.0]hexane-2,3-diol]
Ki [4]: 150 ± 10 nM | Ki [5]: 4910 ± 430 nM | Ki [6]: 780 ± 70 nM | inhibition at 10 µM [7]: 57.9 ± 1.1%

CC(C)Nc1nc(Cl)nc2c1ncn2[C@H]1[C@H](O)[C@H](O)[C@@H]2C[C@@H]21 [Compound 117, (1R,2R,3S,4R,5S)-4-(2-Chloro-6-(isopropylamino)-9H-purin-9-yl)bicyclo[3.1.0]hexane-2,3-diol]
Ki [4]: 72.2 ± 16.4 nM | (% inhibition) A2A ([5]; percent inhibition of radioligand binding at 10 μM): (39%) | Ki [6]: 12 ± 1 nM | inhibition at 10 µM [7]: 50.5 ± 6.4%

CC(C)[C@@H](Nc1nc(Cl)nc2c1ncn2[C@H]1[C@H](O)[C@H](O)[C@@H]2C[C@@H]21)C1CC1 [Compound 214, (1R,2R,3S,4R,5S)-4-(2-Chloro-6-((R)-1-cyclopropyl-2-methyl-propylamino)-9H-purin-9-yl)bicyclo[3.1.0]hexane-2,3-diol]
Ki [4]: 76 ± 8 nM | Ki [5]: 1570 ± 180 nM | Ki [6]: 780 ± 80 nM | inhibition at 10 µM [7]: 33.8 ± 2.3%

OC[C@H]1O[C@@H](n2cnc3c(NC4CCCC4)nc(Cl)nc32)[C@H](O)[C@@H]1O [Compound 235b, 2-chloro-N^6-cyclopentyladenosine]
ED50 ([8]; Mus musculus, ip, read-out: 6 Hz model ED50): 0.12 mg/kg | 6 Hz model ED50 [8]: 0.12^c mg/kg | MES model, number of animals protected from convulsions [9]: 1 out of 4 at | scMET model, number of animals protected from convulsions [10]: 1 out of 4 | Behavioral toxicity TD50 [11]: 0.84 mg/kg and 0.84^c mg/kg
